Four compounds from BindingDB's records for doi:10.1016/j.str.2004.01.005 (University of Dundee, 2004) can be followed below.

Structures are written as SMILES.

What all share (assay): PDK1 Kinase Activity Assay
Settings in all cases: pH 7.5; 30 °C

The target in experiment [1] is T1, 3-phosphoinositide-dependent protein kinase 1 [51-359] (Human, UniProt O15530).
T1 construct: 51-359
T1 sequence (O15530 whole entry): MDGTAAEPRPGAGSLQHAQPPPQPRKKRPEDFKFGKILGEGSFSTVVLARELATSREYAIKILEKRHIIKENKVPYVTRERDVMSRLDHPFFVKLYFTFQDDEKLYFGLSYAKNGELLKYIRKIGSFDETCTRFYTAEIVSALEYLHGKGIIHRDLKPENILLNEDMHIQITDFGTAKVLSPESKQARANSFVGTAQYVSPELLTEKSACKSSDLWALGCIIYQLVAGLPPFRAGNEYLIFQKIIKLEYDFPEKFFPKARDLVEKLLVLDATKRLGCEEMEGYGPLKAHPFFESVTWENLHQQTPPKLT

Experiment [2] has as its target T2, 3-phosphoinositide-dependent protein kinase 1 [51-359,T222A] (Homo sapiens, UniProt O15530, T222A).
T2 construct: 51-359

Experiment [3] deals with T3, 3-phosphoinositide-dependent protein kinase 1 [51-359,V143T,T222A] (Homo sapiens, UniProt O15530, T222A/V143T).
T3 construct: 51-359

Experiment [4] deals with T4, 3-phosphoinositide-dependent protein kinase 1 [51-359,A162V] (Homo sapiens, UniProt O15530, A162V).
T4 construct: 51-359

The target in experiment [5] is T5, 3-phosphoinositide-dependent protein kinase 1 [51-359,L159M] (Homo sapiens, UniProt O15530, L159M).
T5 construct: 51-359

Experiment [6] addresses T6, 3-phosphoinositide-dependent protein kinase 1 [51-359,V143T] (Homo sapiens, UniProt O15530, V143T).
T6 construct: 51-359

Experiment [7] deals with T7, 3-phosphoinositide-dependent protein kinase 1 [51-359,E166D] (Homo sapiens, UniProt O15530, E166D).
T7 construct: 51-359
T7 sequence (O15530 51-359 E166D): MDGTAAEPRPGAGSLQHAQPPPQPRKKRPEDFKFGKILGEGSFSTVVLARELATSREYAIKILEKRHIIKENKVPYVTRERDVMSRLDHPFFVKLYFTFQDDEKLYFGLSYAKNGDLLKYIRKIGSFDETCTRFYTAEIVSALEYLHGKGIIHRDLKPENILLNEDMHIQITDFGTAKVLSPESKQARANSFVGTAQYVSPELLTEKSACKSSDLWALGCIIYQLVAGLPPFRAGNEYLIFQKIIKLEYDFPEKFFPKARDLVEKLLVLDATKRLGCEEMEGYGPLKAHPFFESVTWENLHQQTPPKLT

T4 sequence (O15530 51-359 A162V): as the sequence (O15530 51-359 E166D) above, with A112V, D116E counted along it
T2 sequence (O15530 51-359 T222A): as the sequence (O15530 51-359 E166D) above, with D116E, T172A counted along it
T6 sequence (O15530 51-359 V143T): as the sequence (O15530 51-359 E166D) above, with V93T, D116E counted along it
T5 sequence (O15530 51-359 L159M): as the sequence (O15530 51-359 E166D) above, with L109M, D116E counted along it
T3 sequence (O15530 51-359 V143T/T222A): as the sequence (O15530 51-359 E166D) above, with V93T, D116E, T172A counted along it

In experiment [1], `CN(C)CCCn1cc(C2=C(c3c[nH]c4ccccc34)C(=O)NC2=O)c2ccccc21` [2-[1-(3-dimethylaminopropyl)-indol-3-yl]-3-(indol-3-yl)maleimide] returned a 50% inhibitory concentration (IC50) of 9 µM.

On to `CN1CCCC1CCn1cc(C2=C(c3c[nH]c4ccccc34)C(=O)NC2=O)c2ccccc21` (stereo not given) [3-(1H-indol-3-yl)-4-{1-[2-(1-methylpyrrolidin-2-yl)ethyl]-1H-indol-3-yl}-2,5-dihydro-1H-pyrrole-2,5-dione], for which half-maximal inhibition in experiment [1] (IC50) was put at 14 µM.

`NCCCn1cc(C2=C(c3c[nH]c4ccccc34)C(=O)NC2=O)c2ccccc21` [Bisindolyl deriv. 19]: the 50% inhibitory concentration (IC50) in experiment [2] was 3.8 µM; in experiment [3], 2 µM; in experiment [4], 3.4 µM; in experiment [5], 3 µM; in experiment [6] it was 2.5 µM; in experiment [7] it was 5.7 µM. Further, the concentration for half-maximal inhibition (IC50) in experiment [1] is 4 µM.

The compound `Cn1cc(C2=C(c3cn(CCCN)c4ccccc34)C(=O)NC2=O)c2ccccc21` [Ro 31-7549] had an IC50 in experiment [1] of 1 µM.
